Assay results from patent EP4799701A2, “PYRIMID-2-YL-PYRAZOLE COMPOUNDS AS IRAK INHIBITORS” (Rigel Pharmaceuticals, Inc., priority 2022, dated 2023).
“And” between values parts separate entries of the source, which are not always exact repeats. Identical values can stand only once. Counter-ions that a name gives are not always drawn.

Key:
[1] = Rat brain homogenate binding, equilibrium dialysis (RED); assay type: in vitro ADME; details: two runs; brain homogenate 1 brain /3 buffer, drug 5 µM; 5 µM
Method: Brain and plasma drug binding were performed by equilibrium dialysis using the Rapid Equilibrium Dialysis (RED) device. Briefly, 300 µL of plasma or brain homogenate (1 brain /3 buffer) containing drug (5 µM) was equilibrated (4-18 h) against 500 µL of buffered saline. After incubation, the concentration of drug in plasma/brain homogenate and buffer was determined by LC-MS/MS.
Two runs of rat brain homogenate binding with I-1 compared to Comparison-1. I-1 is approximately 10-fold more free in rat brain than Comparison-1.

[2] = system: TLR4-induced IL-23; assay: LPS induced IL23p19 in THP-1 cells (IFNγ primed), IL-23p19 sandwich ELISA; assay type: cell-based, human; details: THP-1 cells primed with IFNγ, 1 µg/mL LPS, 18 hours; read-out: IL23-p19 ELISA, THP1-IFNy, LPS, 10pt EC50
Description: LPS induced IL23p19 in THP-1 cells (with IFNy primed) Assay
THP-1 Cells (ATCC, Cat# TIB-202), Dimethyl Sulfoxide (DMSO) (Sigma-Aldrich, Cat# D2650), RPMI 1640 (Cellgro, Cat# 10-040-CM), Fetal Bovine Serum (Sigma, Cat# F4135), Albumin From Bovine Serum (BSA) (Sigma-Aldrich, Cat#A7906), LPS (Serotype K-235, Sigma, Product Number L 2143), IFNγ (Peprotech, Cat# 300-02), Capture antibody: Human IL-23p19 ELISA (e-Bioscience, Cat. # 14-7238-85), Detection antibody: Primary Mouse Biotinylated anti-human IL-12(p40/p70) (e-Bioscience, Cat. # 13-7129-85), Secondary HRP-conjugated Streptavidin (R&D Systems, Cat#DY998), 1x PBST Washing Buffer (PBS-Tween tablet) (VWR International, Cat#80058-558), ELISA Blocking Buffer (PBS with 1% BSA), ELISA Dilution Buffer (PBS with 1% BSA), 384 Well Flat-Bottom, MaxiSorp Black Immuno Plates (Thermo Scientific, Cat# 12-565-346), 384 Well Flat-Bottom, White Tissue Culture Plates (Thermo Scientific, Cat# 12-565-343), Super Signal ELISA Pico Chemiluminescent Substrate (Thermo Scientific, Cat#37070), Cell Titer Glo reagent (Promega, Cat#G7573), Positive control, IKK2VI inhibitor (Calbiochem, Cat#401483), AquaMax 4000 plate washer (Molecular Devices), Luminometer, Wallac Victor2 1420 Multilabel Counter.
On day 1, 50K/well THP-1 cells were seeded and primed with IFNγ (50ng/mL) in 384-well plates for about 18 hours in RPMI media with 10%FBS. On day 2, the compound was serially diluted in DMSO from 5 mM in 3-fold dilutions, and then diluted 1:125 in RPMI media with 10%FBS. […] IL-23p19 protein in 70 µL/well of supernatant was measured by sandwich ELISA, and 25 µl/well Cell Titer Glo reagent was added to the remaining cells to measure compound toxicity.
Maxisorp immuno ELISA plates were pre-coated with 25 µL/well of anti-IL-23p19 capture antibody (2.5ug/mL) in PBS overnight at room temperature. […] The plates were read with a luminometer, and the chemiluminescence values were entered into Athena (Rigel) for curve fitting, EC50 calculation, and database storage. […]

rat brain homogenate binding (free drug) [1] | EC50 [2] [nM] | SMILES
0.102% and 0.114% | – | CCO[C@H]1CC[C@H](n2cc(NC(=O)c3csc(-c4cn[nH]c4)n3)c(-c3nc(F)ccc3F)n2)CC1 [Comparison-1, reference compound]
– | 54.4 | CCO[C@H]1CC[C@H](n2cc(NC(=O)c3csc(-c4cnn(COP(=O)(O)O)c4)n3)c(-c3ncccn3)n2)CC1 [Compound I-3, sodium (4-(4-((1-((1r,4r)-4-ethoxycyclohexyl)-3-(pyrimidin-2-yl)-1H-pyrazol-4-yl)carbamoyl)thiazol-2-yl)-1H-pyrazol-1-yl)methyl phosphate]
– | 2.5 | CCO[C@H]1CC[C@H](n2cc(NC(=O)c3csc(-c4cn[nH]c4)n3)c(-c3ncccn3)n2)CC1 [Compound I-4, N-(1-((1r,4r)-4-ethoxycyclohexyl)-3-(pyrimidin-2-yl)-1H-pyrazol-4-yl)-2-(1H-pyrazol-4-yl)thiazole-4-carboxamide tartaric acid salt]
